The subject of the test is S. mansoni schistosomula. Put plainly: S. mansoni schistosomula high-throughput phenotype and motility screen (Roboworm), 72 h. The note with it: for EC50: Schistosoma mansoni; for Effect on phenotype and motility of S. mansoni schistosomula: primary tested concentrations 10 and 50 μM. The class given is cell-based, Schistosoma mansoni. The procedure: Cercariae derived from the NMRI ([…]) Puerto Rican strain (PR-1) of S. mansoni were shed from two Biomphalaria glabrata strains, the NMRI albino and pigmented outbred strains, under intensified lighting conditions (1 h of incubation at 26 °C). Cercariae were then mechanically transformed into schistosomula as previously described.
High-throughput screening (HTS) of selected compounds was conducted as previously described. Briefly, newly transformed schistosomula were distributed in a 384-well tissue culture plate (PerkinElmer, cat 6007460, seeding density of 120 parasites/well). Each compound (at a single concentration or two-fold titrations) was transferred into individual wells alongside the positive and negative controls (AUR at 10 μM final concentration in 0.625% DMSO and 0.625% DMSO, respectively). Schistosomula/compound co-cultures were then incubated at 37 °C for 72 h in a humidified atmosphere containing 5% CO2. Following the co-culture period, automatic assessment of compound-induced schistosomula motility and phenotypic changes were conducted with the high-content imaging platform Roboworm using the image analysis model previously described by Paveley et al..

The mark [1] stands for this setting: 72 h, Table 2, motility, 72 h, three replicate titrations (0.313–10 μM), read-out: Activity on schistosomula (EC50, μM - 72 h) M.
Setting [2] is: 72 h, Table 2, phenotype, 72 h, three replicate titrations (0.313–10 μM), read-out: Activity on schistosomula (EC50, μM - 72 h) P.
[3] abbreviates: 72 h, Table S7, motility, 95% CI in brackets, read-out: Activity on schistosomula (EC50, µM - 72 h) (95% CI) M.
Where [4] appears, read: 72 h, Table S7, phenotype, 95% CI in brackets, read-out: Activity on schistosomula (EC50, µM - 72 h) (95% CI) P.
Where [5] appears, read: Table 3, read-out: Anti-schistosomal activity EC50 (μM) Schistosomula Motility.
The mark [6] stands for this setting: Table 3, read-out: Anti-schistosomal activity EC50 (μM) Schistosomula Phenotype.
Setting [7] is: 72 h, Table 1, 72 h, two dose response titrations (0.313–10 μM), 95% CI in brackets, read-out: Activity on schistosomula (EC50, μM - 72 h) Motility.
The mark [8] stands for this setting: 72 h, Table 1, 72 h, two dose response titrations (0.313–10 μM), 95% CI in brackets, read-out: Activity on schistosomula (EC50, μM - 72 h) Phenotype.
Setting [9] is: Fig. S3, average schistosomula EC50, read-out: EC50 (Fig. S3, anti-schistosomula activity).
The mark [10] stands for this setting: 72 h, Table 1, mean of phenotype and motility EC50, 72 h, read-out: Activity on schistosomula (EC50, μM - 72 h) Average.
The mark [11] stands for this setting: 72 h, read-out: EC50 on schistosomula (bounds and ranges given).
The mark [12] stands for this setting: Table 5, Series C, read-out: Anti-schistosomal activity EC50 Schistosomula (μM) Motility.
The mark [13] stands for this setting: Table 5, Series C, read-out: Anti-schistosomal activity EC50 Schistosomula (μM) Phenotype.

Read-outs that look alike come from different tables or passages of the source.

Take `O=[N+]([O-])c1ccc2nc(Cl)c(Cl)nc2c1` [2,3-dichloro-6-nitroquinoxaline]: the 50% effective concentration (EC50) (commonly the concentration at which the effect is half-maximal) by setting is: under setting [1], above 10 µM; under setting [2], above 10 µM; under setting [3], above 10 µM; under setting [4], above 10 µM; under setting [5], above 10 µM; under setting [6], above 10 µM.
In the case of `O=[N+]([O-])c1ccc2nc(O)c(O)nc2c1` [6-nitro-2,3-dihydroxy-quinoxaline], the EC50 by setting is: under setting [1], above 50 µM; under setting [2], above 50 µM; under setting [3], above 50 µM; under setting [4], above 50 µM; under setting [5], above 50 µM; under setting [6], above 50 µM.
`Cc1ccc(/N=c2\[nH]c3ccccc3s\c2=N\c2ccc(C)cc2)cc1` [Compound 2]: the EC50 is, setting by setting: under setting [7], above 50 µM; under setting [8], above 50 µM; under setting [9], above 50 µM. Besides, where the note is “72 h”, the “Effect on phenotype and motility of S. mansoni schistosomula” value (from here on “Effect on phenotype and motility”) is listed as “did not have any effect”.
Turning to `COc1ccc(/N=c2\[nH]c3ccccc3s\c2=N\c2ccc(OC)cc2)cc1` [Compound 3], the EC50 under setting [7] was above 50 µM, the EC50 under setting [8] is above 50 µM and the 50% effective concentration (EC50) under setting [9] is above 50 µM. Besides, where the note is “72 h”, the “Effect on phenotype and motility” value is listed as “did not have any effect”.
As to `FC(F)(F)c1cccc(/N=c2\[nH]c3ccccc3s\c2=N\c2cccc(C(F)(F)F)c2)c1` [Compound 4], the EC50 was above 50 µM under setting [7], above 50 µM under setting [8] and above 50 µM under setting [9]. The “Effect on phenotype and motility” value (72 h) is given as “did not have any effect”.
In the case of `Cc1ccc2[nH]c(=Nc3ccccc3C)c(=Nc3ccccc3C)[nH]c2c1` [Compound 5], the 50% effective concentration (EC50) is, setting by setting: under setting [7], above 10 µM; under setting [8], above 10 µM. Besides, the “Effect on phenotype and motility” value (72 h) is “weak effect”.
On to `COc1ccc2nc(Nc3ccccc3)c(Nc3ccccc3)nc2c1` [Compound 6], for which the EC50 is above 10 µM under setting [7], above 10 µM under setting [8] and above 10 µM under setting [9]. The “Effect on phenotype and motility” value (72 h) is given as “weak effect”.
Regarding `OCc1cccc(N=c2[nH]c3ccccc3[nH]c2=Nc2cccc(CO)c2)c1` [Compound 7], the half-maximal effective concentration (EC50) reads like this: under setting [7], above 10 µM; under setting [8], above 10 µM. Further, the “Effect on phenotype and motility” value (72 h) was “weak effect”.
On to `COc1ccc(OC)c(Nc2nc3ccccc3nc2Nc2cc(OC)ccc2OC)c1` [Compound 8], for which the EC50 reads like this: under setting [7], above 50 µM; under setting [8], above 50 µM; under setting [9], above 50 µM. The “Effect on phenotype and motility” value (72 h) is “did not have any effect”.
With `CCOc1ccc(Nc2nc3ccccc3nc2Nc2ccc(OCC)cc2)cc1` [Compound 9], the “Activity on schistosomula in the primary screen at 10 μM” value (72 h) was “retained activity”. For the same molecule, the concentration giving a half-maximal response (EC50) is, setting by setting: under setting [7], 4.87 µM; under setting [8], 5.92 µM; under setting [10], 5.39 µM.
The like results for `CCOC(=O)c1ccc(Nc2nc3ccccc3nc2Nc2ccc(C(=O)OCC)cc2)cc1` [Compound 10] were, in that order, “retained activity”, 5.83 µM, 5.12 µM and 5.47 µM.
`FC(F)(F)c1cccc(Oc2nc3ccccc3nc2Oc2cccc(C(F)(F)F)c2)c1` [Compound 12]: the EC50 runs as follows: under setting [7], above 10 µM; under setting [8], above 10 µM; under setting [9], above 10 µM. Also, the “Effect on phenotype and motility” value (72 h) is reported as “weak effect”.
Consider `Fc1ccccc1Nc1nc2ccccc2nc1Nc1ccccc1F` [Compound 13], for which the EC50 was above 10 µM under setting [7] and above 10 µM under setting [8]. Under “72 h”, the “Effect on phenotype and motility” value is “weak effect”.
Consider `Cc1ccc(Sc2nc3ccccc3nc2Sc2ccc(C)cc2)cc1` [Compound 14], for which the EC50 under setting [7] was above 50 µM, the EC50 under setting [8] was above 50 µM and the concentration for a half-maximal effect (EC50) under setting [9] was above 50 µM. Further, the “Effect on phenotype and motility” value (72 h) was “did not have any effect”.
Turning to `Cc1ccc(Nc2nc3ccccc3nc2Nc2ccc(C)cc2)cc1` [Compound 15], the half-maximal effective concentration (EC50) under setting [7] is above 10 µM, the EC50 under setting [8] is above 10 µM and the EC50 under setting [9] was above 10 µM. Besides, the “Effect on phenotype and motility” value (72 h) is recorded as “weak effect”.
Take `Cc1ccc(Nc2nc3ccccc3nc2Nc2ccc(C)c(Cl)c2)cc1Cl` [Compound 17]: the “Activity on schistosomula in the primary screen at 10 μM” value (72 h) is “retained activity”. The concentration giving a half-maximal response (EC50) was 2.45 µM under setting [7], 2.88 µM under setting [8], 2.66 µM under setting [10] and 1 to 2 µM under setting [11].
Consider `c1ccc(-c2nc3ccccc3nc2-c2ccccc2)cc1` [Compound 18], for which the concentration for a half-maximal effect (EC50) was above 10 µM under setting [7] and above 10 µM under setting [8]. The “Effect on phenotype and motility” value (72 h) is reported as “weak effect”.
For the molecule `Clc1ccc(Nc2nc3ccc(N4CCCC4)cc3nc2Nc2ccc(Cl)c(Cl)c2)cc1Cl` [Compound 22b, N^2, N^3-bis(3,4-dichlorophenyl)-6-(pyrrolidin-1-yl)quinoxaline-2,3-diamine], the “Activity on schistosomula in the primary screen at 50 μM” value (50 μM, 72 h) is on record as “affected schistosomula motility, but not phenotype”. In addition, the EC50 was above 10 µM under setting [1]; above 10 µM under setting [2]; above 10 µM under setting [3]; above 10 µM under setting [4]; above 10 µM under setting [12]; above 10 µM under setting [13].
On to `O=C(Nc1ccc2nc(Nc3ccc(Cl)c(Cl)c3)c(Nc3ccc(Cl)c(Cl)c3)nc2c1)C1CCCCC1` [Compound 22e, N-(2,3-bis((3,4-dichlorophenyl)amino)quinoxalin-6-yl)cyclohexanecarboxamide], for which the EC50 runs as follows: under setting [1], above 50 µM; under setting [2], above 50 µM; under setting [3], above 50 µM; under setting [4], above 50 µM; under setting [12], above 50 µM; under setting [13], above 50 µM.
As to `O=C(Nc1ccc2nc(Nc3ccc(Cl)c(Cl)c3)c(Nc3ccc(Cl)c(Cl)c3)nc2c1)c1cccc(C(F)(F)F)c1` [Compound 22g, N-(2,3-bis((3,4-dichlorophenyl)amino)quinoxalin-6-yl)-3-(trifluoromethyl)benzamide], the EC50 was above 50 µM under setting [1]; above 50 µM under setting [2]; above 50 µM under setting [3]; above 50 µM under setting [4]; above 50 µM under setting [12]; above 50 µM under setting [13].
For the molecule `O=C(O)C=Cc1cccc(Nc2nc3ccc([N+](=O)[O-])cc3nc2Nc2cccc(C=CC(=O)O)c2)c1` [Compound 24], the EC50 is, setting by setting: under setting [7], above 10 µM; under setting [8], above 10 µM. For the same molecule, for the setting “72 h”, the “Effect on phenotype and motility” value was “weak effect”.
Regarding `Cc1cccc(Nc2nc3ccc([N+](=O)[O-])cc3nc2Nc2cccc(C)c2C)c1C` [Compound 27, N2, N3-bis(2,3-dimethylphenyl)-6-nitroquinoxaline-2,3-diamine], the concentration for a half-maximal effect (EC50) was above 10 µM under setting [1]; above 10 µM under setting [2]; above 10 µM under setting [3]; above 10 µM under setting [4]; above 10 µM under setting [11]; above 10 µM (Table 4, Series A, read-out: Anti-schistosomal activity EC50 Schistosomula (μM) Motility). Besides, the EC50 (Table 4, Series A, read-out: Anti-schistosomal activity EC50 Schistosomula (μM) Phenotype) was above 10 µM.

Values taken from publication PMC8626775, “Anti-schistosomal activities of quinoxaline-containing compounds: From hit identification to lead optimisation” (European Journal of Medicinal Chemistry, 2021).
